± gives the expanded uncertainty stated by the source.

This series is described as follows: molar enthalpy of vaporization or sublimation. The following applies: 298.15 K; Liquid; Calvet microcalorimetry.
`N#Cc1ccsc1` [3-thiophenecarbonitrile]: the molar enthalpy is 12.3 ± 0.908 kcal/mol.
Regarding `N#Cc1cccs1` [2-cyanothiophene], the molar enthalpy came to 11.8 ± 0.526 kcal/mol.
Consider `N#CCc1ccsc1` [3-thiopheneacetonitrile], for which the molar enthalpy is 14.6 ± 0.621 kcal/mol.
Turning to `N#CCc1cccs1` [2-thiopheneacetonitrile], the molar enthalpy came out at 14.5 ± 0.621 kcal/mol.
In the case of `Cc1ccsc1C#N` [3-methylthiophene-2-carbonitrile] it was 13 ± 0.574 kcal/mol.
